The values that follow come from patent US20220185767A1, “NOVEL TERNARY MOLECULAR COMPLEX OF TAMIBAROTENE FOR CANCER STEM CELLS TREATMENT” (TRANSGENEX NANOBIOTECH, INC., priority 2019, published 2022).

Read-outs that look alike come from different tables or passages of the source.

One series has as its system PC-3. The series is described as follows: Monolayer Cell Culture Assay, IC50. The series is classed as cell-based. The settings on record: PC-3, Prostate. From the text: (§1) All IC50 studies' methodology and materials are described in full details in international publication number WO 2019/160806 dated Aug. 22, 2019, but with substituting the binary molecular complex with the ternary molecular complex of the present invention.

The test system of a further series is SK-ES-1. The series is described as follows: Monolayer Cell Culture Assay, IC50. Particulars: SK-ES-1, Sarcoma. The class given is cell-based.
Excerpt: as §1

In a further series the test system is A549. The series is described as follows: Monolayer Cell Culture Assay, IC50. The series is classed as cell-based. The settings on record: A549, Lung.
Excerpt: as §1

A further series deals with SK-Mel-5. The series is described as follows: Monolayer Cell Culture Assay, IC50. The class given is cell-based. Particulars: SK-Mel-5, Skin.
Excerpt: as §1

The test system of the next series is PANC-1. The series is described as follows: Monolayer Cell Culture Assay, IC50. The series is classed as cell-based. The settings on record: PANC-1, Pancreas.
Excerpt: as §1

A further series concerns U-2 OS. The series is described as follows: Monolayer Cell Culture Assay, IC50. The series is classed as cell-based. The settings on record: Sarcoma.
Excerpt: as §1

A further series deals with lung cancer cells. The series is described as follows: Sphere assay. The class given is cell-based. From the text: All sphere assay studies methodology and materials are described in full details in international publication number WO 2019/160806 dated Aug. 22, 2019, but with substituting the binary molecular complex with the ternary molecular complex of the present invention.

The format of series [1] is physicochemical. On the procedure:
30.0 mg of tamibarotene, 11.4 mg of L-malic acid and 43.5 mg of telmisartan (1:1:1 molar ratio) were stirred as an open slurry in 1 mL of acetone in a glass vial. After 16-24 hours of stirring mixture was further dried at room temperature until, a completely dried mixture is obtained. The resulted material was stored in a screw cap vial and characterized by PXRD and IR. PXRD comparison of binary tamibarotene-L-malic acid complex (TN-513) with tamibarotene-L-malic acid-telmisartan (TN-513-T) also confirmed the successful synthesis of a ternary complex. Synthesis of ternary TN-513-T was scaled up to 150 mg of tamibarotene and stability was tested on accelerated conditions (75% humidity at 40° C.) for 1 and three months.

For series [2] the following is noted: cited from earlier work.
Another series relates to CT26. The series is described as follows: Monolayer Cell Culture Assay, IC50. The class given is cell-based. The settings on record: Mus musculus, CT26, Colon.
Excerpt: as §1

The next series concerns HCT116. The series is described as follows: Monolayer Cell Culture Assay, IC50. The series is classed as cell-based. Particulars: Homo sapiens, HCT-116, HCT116, Colon.
Excerpt: as §1

The subject of another series is MC38. The series is described as follows: Monolayer Cell Culture Assay, IC50. Particulars: Mus musculus, MC-38, MC38, Colon. The class given is cell-based.
Excerpt: as §1

For another series, the system named is HT29. The series is described as follows: Monolayer Cell Culture Assay, IC50. The series is classed as cell-based. Particulars: Homo sapiens, HT-29, HT29, Colon.
Excerpt: as §1

Where [3] appears, read: average of two tests, read-out: IC50 Test AVG Avg.
Setting [4] is: Homo sapiens, average of two tests, read-out: IC50 Test AVG Avg.
Setting [5] is: Homo sapiens, read-out: IC50 Test (II) Avg.
The mark [6] stands for this setting: Homo sapiens, read-out: IC50 Test(I) Avg.

In the case of `CC1(C)CCC(C)(C)c2cc(NC(=O)c3ccc(C(=O)O)cc3)ccc21.CCOc1nc2cccc(C(=O)O)c2n1Cc1ccc(-c2ccccc2-c2nn[nH]n2)cc1` [TN513:CS, Tamibarotene:L-malic acid:candesartan], the IC50 in the series with PC-3 (setting [3]) is 106 µM; in the series on PC-3 (read-out: IC50 Test (II) Avg), 111 µM; with PC-3 (read-out: IC50 Test(I) Avg), 102 µM; in the series with SK-ES-1 (setting [3]) it was 31.4 µM; in the series with SK-ES-1 (read-out: IC50 Test (II) Avg), 33.6 µM; in the series with SK-ES-1 (read-out: IC50 Test(I) Avg), 29.2 µM. Further, the IC50 with A549 (setting [3]) was 52.4 µM; in the series on A549 (read-out: IC50 Test (II) Avg), 62.2 µM; in the series on A549 (read-out: IC50 Test(I) Avg), 42.7 µM; in the series with SK-Mel-5 (setting [3]) it was 46.1 µM; with SK-Mel-5 (read-out: IC50 Test (II) Avg), 42.6 µM; in the series on SK-Mel-5 (read-out: IC50 Test(I) Avg), 49.5 µM. Besides, the IC50 with PANC-1 (setting [3]) is 70.6 µM; in the series on PANC-1 (read-out: IC50 Test (II) Avg), 88 µM; in the series on PANC-1 (read-out: IC50 Test(I) Avg), 53.3 µM; with U-2 OS (setting [3]), 42.8 µM; with U-2 OS (read-out: IC50 Test (II) Avg), 45.8 µM; in the series on U-2 OS (read-out: IC50 Test(I) Avg), 39.9 µM.
`CC1(C)CCC(C)(C)c2cc(NC(=O)c3ccc(C(=O)O)cc3)ccc21.CCCc1nc2c(C)cc(-c3nc4ccccc4n3C)cc2n1Cc1ccc(-c2ccccc2C(=O)O)cc1.O=C(O)C[C@H](O)C(=O)O` [TN513:TS, Tamibarotene:L-malic acid:telmisartan]: the “preventing sphere aggregation (sphere formation efficacy)” value in the series on lung cancer cells (FIG. 10) is “superior efficacy preventing sphere aggregation”. In the series on lung cancer cells (FIG. 11), the “total surface area of the cancer cell spheres” value is “dramatically reducing the total surface area”. In addition, the IC50 in the series on PC-3 (setting [3]) came out at 71.2 µM; in the series with PC-3 (read-out: IC50 Test (II) Avg), 70.8 µM; in the series on PC-3 (read-out: IC50 Test(I) Avg), 71.7 µM; with SK-ES-1 (setting [3]) it was 17.9 µM; in the series on SK-ES-1 (read-out: IC50 Test (II) Avg), 18.4 µM; in the series with SK-ES-1 (read-out: IC50 Test(I) Avg) it was 17.4 µM. Besides, the IC50 is 16 µM with A549 (setting [3]); 19.9 µM in the series with A549 (read-out: IC50 Test (II) Avg); 12 µM in the series with A549 (read-out: IC50 Test(I) Avg); 20.7 µM in the series on SK-Mel-5 (setting [3]); 26.1 µM in the series with SK-Mel-5 (read-out: IC50 Test (II) Avg); 15.3 µM in the series on SK-Mel-5 (read-out: IC50 Test(I) Avg). Besides, the IC50 in the series on PANC-1 (setting [3]) turned out to be 32.5 µM; in the series on PANC-1 (read-out: IC50 Test (II) Avg), 40.2 µM; in the series with PANC-1 (read-out: IC50 Test(I) Avg), 24.8 µM; in the series with U-2 OS (setting [3]), 12.9 µM; in the series on U-2 OS (read-out: IC50 Test (II) Avg), 14.6 µM; with U-2 OS (read-out: IC50 Test(I) Avg) it was 11.2 µM. In addition, the “stability on accelerated conditions (PXRD)” value in series [1] is reported as “no change in PXRD data”.
As for `CC1(C)CCC(C)(C)c2cc(NC(=O)c3ccc(C(=O)O)cc3)ccc21.CCCCc1nc(Cl)c(CO)n1Cc1ccc(-c2ccccc2-c2nn[nH]n2)cc1` [TN513:LS, Tamibarotene:L-malic acid:losartan], the IC50 was 332 µM in the series on PC-3 (setting [3]); 343 µM in the series on PC-3 (read-out: IC50 Test (II) Avg); 322 µM in the series with PC-3 (read-out: IC50 Test(I) Avg); 106 µM in the series on SK-ES-1 (setting [3]); 122 µM in the series on SK-ES-1 (read-out: IC50 Test (II) Avg); 90 µM with SK-ES-1 (read-out: IC50 Test(I) Avg). Moreover, the IC50 stood at 110 µM in the series with A549 (setting [3]); 126 µM in the series with A549 (read-out: IC50 Test (II) Avg); 93.8 µM with A549 (read-out: IC50 Test(I) Avg); 116 µM in the series with SK-Mel-5 (setting [3]); 132 µM in the series with SK-Mel-5 (read-out: IC50 Test (II) Avg); 99.9 µM in the series with SK-Mel-5 (read-out: IC50 Test(I) Avg). For the same compound, the IC50 with PANC-1 (setting [3]) was 126 µM; in the series on PANC-1 (read-out: IC50 Test (II) Avg), 149 µM; in the series on PANC-1 (read-out: IC50 Test(I) Avg), 104 µM; in the series with U-2 OS (setting [3]) it was 64.8 µM; in the series on U-2 OS (read-out: IC50 Test (II) Avg), 69.6 µM; with U-2 OS (read-out: IC50 Test(I) Avg), 59.9 µM.
As to `CC1(C)CCC(C)(C)c2cc(NC(=O)c3ccc(C(=O)O)cc3)ccc21` [TAM, 4-[(5,5,8,8-tetramethyl-5,6,7,8-tetrahydronaphthalen-2-yl)carbamoyl]benzoic acid, reference compound], the “solubility in organic solvents” value in [2] (DMF, methanol, ethanol, DMSO, and other organic solvents) is “soluble”. Moreover, the “solubility in acetonitrile, water, and various other buffer solutions” value in series [2] (acetonitrile, water, buffer solutions pH3~7 (CN 101200435 B)) was “insoluble”. Moreover, the IC50 in the series with PC-3 (setting [4]) is more than 100 µM; in the series with PC-3 (setting [5]) it was more than 100 µM; with PC-3 (setting [6]), more than 100 µM; with SK-ES-1 (Homo sapiens, SK-ES1, average of two tests, read-out: IC50 Test AVG Avg), more than 100 µM; with SK-ES-1 (Homo sapiens, SK-ES1, read-out: IC50 Test (II) Avg), more than 100 µM; with SK-ES-1 (Homo sapiens, SK-ES1, read-out: IC50 Test(I) Avg), more than 100 µM. Also, the IC50 in the series on CT26 (setting [3]) came out at 87.3 µM; in the series on CT26 (read-out: IC50 Test (I) Avg), 61.9 µM; with CT26 (read-out: IC50 Test (II) Avg), 94.8 µM; in the series on A549 (setting [4]), 60.3 µM; in the series with HCT116 (setting [3]), 60.4 µM; in the series with HCT116 (read-out: IC50 Test (I) Avg), 49.6 µM. Besides, the IC50 in the series with HCT116 (read-out: IC50 Test (II) Avg) is 71.3 µM; in the series with SK-Mel-5 (setting [4]), more than 100 µM; in the series on SK-Mel-5 (setting [5]), more than 100 µM; with SK-Mel-5 (setting [6]), more than 100 µM; in the series on MC38 (setting [3]) it was 101 µM; in the series on MC38 (read-out: IC50 Test (I) Avg), 65.7 µM. The IC50 with MC38 (read-out: IC50 Test (II) Avg) was 137 µM; in the series with PANC-1 (setting [4]), more than 100 µM; in the series with PANC-1 (setting [5]), more than 100 µM; in the series on PANC-1 (setting [6]), more than 100 µM; with HT29 (setting [3]) it was 100 µM; in the series with HT29 (read-out: IC50 Test (I) Avg), 88.9 µM. Further, the IC50 was 111 µM in the series with HT29 (read-out: IC50 Test (II) Avg); more than 100 µM with U-2 OS (Homo sapiens, U2OS, average of two tests, read-out: IC50 Test AVG Avg); more than 100 µM in the series on U-2 OS (Homo sapiens, U2OS, read-out: IC50 Test (II) Avg); more than 100 µM in the series with U-2 OS (Homo sapiens, U2OS, read-out: IC50 Test(I) Avg).

The term IC50 denotes the concentration needed to halve the response being measured.
